Results published in patent publication US20080026996A1, “Selective Vpac2 Receptor Reptide Agonists” (ELI LILLY AND COMPANY, priority 2004, published 2008).
Where a SMILES comes first, the peptide text is derived from it. Where no end group is shown, it is not given here. [ ]: non-standard residue; d: D form. The star is where a group is joined. Hexanoyl = CCCCCC(=O)*; Aib = CC(C)(N)C(=O)O

How the values were obtained:
human VPAC2 [1] = target: T1, human VPAC2 (Homo sapiens, UniProt P41587); experiment: Alpha screen cAMP in vitro potency, human VPAC2 receptor; assay type: cell-based; conditions: cAMP generation; single result from two analyses performed in a single run; read-out: Human VPAC2 Receptor: Alpha Screen EC50
T1 construct: expressed in transfected cells
T1 sequence (P41587 24-438): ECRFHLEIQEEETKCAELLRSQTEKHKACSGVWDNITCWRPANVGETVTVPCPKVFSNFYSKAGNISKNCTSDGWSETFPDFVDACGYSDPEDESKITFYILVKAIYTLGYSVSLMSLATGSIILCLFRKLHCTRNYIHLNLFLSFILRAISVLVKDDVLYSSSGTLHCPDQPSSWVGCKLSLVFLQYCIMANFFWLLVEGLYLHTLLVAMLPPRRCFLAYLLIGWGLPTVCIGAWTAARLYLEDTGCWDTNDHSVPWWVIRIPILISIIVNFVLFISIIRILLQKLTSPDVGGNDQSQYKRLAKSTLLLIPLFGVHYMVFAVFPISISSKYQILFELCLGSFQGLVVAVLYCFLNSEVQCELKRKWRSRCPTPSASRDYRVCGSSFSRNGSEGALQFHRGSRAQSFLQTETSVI
Method in brief: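 Dissociated cells, 50,000 per point in stimulation buffer, were incubated with stimuli and AlphaScreen acceptor beads for 60 min.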

human VPAC2 [2] = target: T1, human VPAC2; experiment: Filter binding assay, membranes of stable VPAC2 cell line, 125I-labeled VIP tracer (Table 2); conditions: read-out: Human VPAC2 Receptor Binding
Method in brief: (§1)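 Scintillation counting of filter-retained radioligand gave the read-out. Compounds competed with the labelled tracer (about 40000 cpm) for 2.5 μg membranes during 1 hour of shaking in HEPES pH 7.4 buffer containing 0.5% BSA.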

[3] = Rat serum stability studies (remaining active peptide by DiscoveRx cAMP on CHO-VPAC2 cells); assay type: in vitro ADME
Method in brief: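 Rat serum, 18 h: +aprotinin aliquot at 4° C, no-aprotinin aliquot at 37° C. Then 30 min RT step, supernatant removed, 1 h shaking at 300 rpm. DiscoveRx cAMP kit on CHO-VPAC2; EC50 from cAMP data vs standards.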

human VPAC1 = target: T2, human VPAC1 (Homo sapiens, UniProt P32241); experiment: Filter binding assay, membranes of cells transiently transfected with human VPAC1, 125I-labeled VIP tracer (Table 2); set-up: expressed in transfected cells; conditions: read-out: Human VPAC1 Receptor Binding
T2 sequence (P32241 31-457): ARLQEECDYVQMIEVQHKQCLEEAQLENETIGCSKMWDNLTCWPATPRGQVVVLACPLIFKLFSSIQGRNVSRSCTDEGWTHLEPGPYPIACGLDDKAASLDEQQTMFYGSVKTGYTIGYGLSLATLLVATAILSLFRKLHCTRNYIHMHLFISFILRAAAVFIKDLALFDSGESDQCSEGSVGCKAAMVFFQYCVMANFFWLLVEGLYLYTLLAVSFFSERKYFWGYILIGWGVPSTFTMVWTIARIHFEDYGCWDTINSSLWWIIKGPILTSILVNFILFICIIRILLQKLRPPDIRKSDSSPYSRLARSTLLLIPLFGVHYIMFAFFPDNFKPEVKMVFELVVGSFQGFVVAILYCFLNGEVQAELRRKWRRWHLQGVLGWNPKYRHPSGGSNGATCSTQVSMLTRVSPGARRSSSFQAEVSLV
Method in brief: as §1

human PAC1 = target: T3, human PAC1 (Homo sapiens, UniProt P41586); experiment: Filter binding assay, membranes of cells transiently transfected with human PAC1, 125I-labeled PACAP-27 tracer (Table 2); set-up: expressed in transfected cells; conditions: read-out: Human PAC1 Receptor Binding
T3 sequence (P41586 21-468): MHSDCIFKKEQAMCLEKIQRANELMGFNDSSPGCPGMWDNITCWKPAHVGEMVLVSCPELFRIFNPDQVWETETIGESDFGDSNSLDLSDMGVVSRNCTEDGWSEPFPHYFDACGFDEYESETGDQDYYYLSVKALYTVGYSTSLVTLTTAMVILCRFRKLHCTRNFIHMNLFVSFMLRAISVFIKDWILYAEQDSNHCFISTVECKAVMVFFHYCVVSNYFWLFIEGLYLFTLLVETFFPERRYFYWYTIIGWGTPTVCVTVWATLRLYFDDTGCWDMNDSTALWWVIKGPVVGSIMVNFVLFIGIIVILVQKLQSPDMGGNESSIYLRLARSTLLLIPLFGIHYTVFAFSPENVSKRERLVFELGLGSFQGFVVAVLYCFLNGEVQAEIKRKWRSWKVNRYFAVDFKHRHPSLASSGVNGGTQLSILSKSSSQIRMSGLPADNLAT
Method in brief: as §1

Row | Molecule | EC50 (human VPAC2 [1]) [nM] | IC50 (human VPAC2 [2]) [nM] | Rat Serum Stability (estimated purity in % after 18 hours) [3] [%] | IC50 (human VPAC1) [nM] | IC50 (human PAC1) [nM]
1 | Hexanoyl-HSDAVFTDNYTRLRKQVAAKKYIQSIKNKRYGGPSSGAPPPS [Agonist P233] | 0.11 | 0.31 | 1.27 | 323 | 320
2 | CCCCCC(=O)N[C@@H](Cc1c[nH]cn1)C(=O)N[C@@H](CO)C(=O)N[C@@H](CC(=O)O)C(=O)N[C@@H](C)C(=O)N[C@H](C(=O)N[C@@H](Cc1ccccc1)C(=O)N[C@H](C(=O)N[C@@H](CC(=O)O)C(=O)N[C@@H](CC(N)=O)C(=O)N[C@@H](Cc1ccc(O)cc1)C(=O)N[C@H](C(=O)N[C@@H](CCCNC(=N)N)C(=O)N[C@@H](CC(C)C)C(=O)N[C@@H](CCCNC(=N)N)C(=O)NC(C)(C)C(=O)N[C@@H](CCC(N)=O)C(=O)N[C@H](C(=O)N[C@@H](C)C(=O)N[C@@H](C)C(=O)NC(C)(C)C(=O)N[C@@H](CCCCN)C(=O)N[C@@H](Cc1ccc(O)cc1)C(=O)N[C@@H](CC(C)C)C(=O)N[C@@H](CCC(N)=O)C(=O)N[C@@H](CO)C(=O)N[C@H](C(=O)N[C@@H](CCCCN)C(=O)N[C@@H](CCC(N)=O)C(=O)N[C@@H](CCCCN)C(=O)NCC(=O)NCC(=O)N1CCC[C@H]1C(=O)N[C@@H](CO)C(=O)N[C@@H](CO)C(=O)NCC(=O)N[C@@H](C)C(=O)N1CCC[C@H]1C(=O)N1CCC[C@H]1C(=O)N1CCC[C@H]1C(=O)N[C@@H](CO)C(=O)O)[C@@H](C)CC)C(C)C)[C@@H](C)O)[C@@H](C)O)C(C)C [Agonist P294] (Hexanoyl-HSDAVFTDNYTRLR[Aib]QVAA[Aib]KYLQSIKQKGGPSSGAPPPS-OH; C-terminus assumed) | 0.24 | 0.45 | 24.25 | > 3000 | > 25000
3 | Hexanoyl-HSDAVFTKNYTRLRKQVAAKKYLQSIKNKRYGGPSSGAPPPS [Agonist P160] | 13.2 | 4.77 | <4.25 | 50.3 | 262
4 | Hexanoyl-HSDAVFTDNYTRLRAQVAAQKYLQSIKNKRYGGPSSGAPPPS [Agonist P138] | 0.45 | 1.01 | 0.48 | 5.28 | 1110
5 | Hexanoyl-HSDAVFTDNYTRLRKQVAAKKYFQSIKNKRYGGPSSGAPPPS [Agonist P231] | 0.26 | 0.55 | 0.57 | 458 | 300
6 | Hexanoyl-HSDAVFTDNYTRLFKQVAAKKYLQSIKNKRYGGPSSGAPPPS [Agonist P175] | 0.68 | 13.3 | <0.11 | > 3000 | > 25000
7 | Hexanoyl-HSDAVFTDNYTRLR[Aib]QVAAAKYLQSIKNKRYGGPSSGAPPPS [Agonist P263] | 0.07 | 0.38 | 11.72 | 2680 | 636
8 | Hexanoyl-HSDAVFTDNYTRLQKQVAAKQYLQSIKNKRYGGPSSGAPPPS [Agonist P253] | 0.46 | 1.78 | 1.27 | 2160 | > 25000
9 | Hexanoyl-HSDAVFTDNYTRLRKQVAAAKYLQSIKNKRYGGPSSGAPPPS [Agonist P181] | 0.13 | 0.29 | <0.53 | 325 | 522
10 | Hexanoyl-HSDAVFTDNYTRLKKQVAAKKYLQSIKNKRYGGPSSGAPPPS [Agonist P171] | 0.82 | 5.81 | 1.78 | 174 | 335
11 | Hexanoyl-HSDAVFTDNYTRLRK(Ac)QVAAK(Ac)KYLQSIKNKRYGGPSSGAPPPS [Agonist P193] | 0.18 | 0.37 | 0.25 | 250 | 542
12 | Hexanoyl-HSDAVFTEEYTRLQKQVAAKQYLQSIKNKRYGGPSSGAPPPS [Agonist P165] | 0.94 | 18.4 | 7.28 | 486 | 2860
